Source: ChEMBL document CHEMBL2407053, “Pharbinilic acid, an allogibberic acid from morning glory (Pharbitis nil)” (J Nat Prod, 2013)

Tests used:
SK-OV-3 = assay: Cytotoxicity against human SKOV3 cells by sulforhodamine B assay; format: functional, cell-based
A549 = assay: Cytotoxicity against human A549 cells by sulforhodamine B assay; format: functional, cell-based
SK-MEL-2 = assay: Cytotoxicity against human SK-MEL-2 cells by sulforhodamine B assay; format: functional, cell-based
BV-2 [1] = assay: Antiinflammatory activity against mouse BV2 cells assessed as inhibition of LPS-induced NO production incubated for 30 mins prior to LPS-challenge measured after 24 hrs by Griess assay; format: functional, cell-based
HCT-15 = assay: Cytotoxicity against human HCT15 cells by sulforhodamine B assay; format: functional, cell-based
BV-2 [2] = assay: Cytotoxicity against mouse BV2 cells by MTT assay; format: cell-based

IC50 (BV-2 [1]): 32.9 µM
SMILES: C=C1C[C@]23C[C@@]1(O)CC[C@H]2c1cc2c(C(=O)O)coc2c(C)c1[C@@H]3C(=O)O
IC50 (SK-OV-3): 4.83 µM
IC50 (A549): 15.7 µM
IC50 (SK-MEL-2): 8.36 µM
IC50 (HCT-15): 6.79 µM
Activity (BV-2 [2]): Non-toxic
